Here are results for 17 compounds from ChEMBL document CHEMBL1137166, “A unidirectional crosslinking strategy for HIV-1 protease dimerization inhibitors” (Bioorg Med Chem Lett, 2004).

The IC50 is the concentration that inhibits the measured activity by half. What is called inhibition is the relative decrease from the control value, in per cent. The term Ki denotes a dissociation constant, usually derived from enzyme kinetics or from competition with a known ligand. A low value points to tighter binding.

Assay [1] deals with T1, Human immunodeficiency virus type 1 protease (Human immunodeficiency virus 1, UniProt Q72874). Put plainly: Inhibitory activity against Human immunodeficiency virus-1 protease.
For assay [2], the target named is Human immunodeficiency virus type 1 protease (Human immunodeficiency virus 1) (UniProt Q72874). Put plainly: Percent inhibition against Human immunodeficiency virus-1 protease at the concentration of 100 uM.
Assay [3] addresses T1, Human immunodeficiency virus type 1 protease. Put plainly: Binding activity towards Human immunodeficiency virus-1 protease.

Where a SMILES comes first, the peptide text is derived from it. [ ]: non-standard residue; d: D form. The star is where a group is joined. ξ: configuration not given here. Tyr(3-NO2) = N[C@@H](Cc1ccc(O)c([N+](=O)[O-])c1)C(=O)O; C16 diacid = O=C(O)CCCCCCCCCCCCCCC(=O)*; 1Nal = N[C@@H](Cc1cccc2ccccc12)C(=O)O; Cha = N[C@@H](CC1CCCCC1)C(=O)O; Ile(3ξ) = CCC(C)[C@H](N)C(=O)O; aThr = C[C@H](O)[C@H](N)C(=O)O; Fumaroyl = O=C(O)/C=C/C(=O)*; 12Ado = NCCCCCCCCCCCC(=O)O

The compound `NC(=O)CCCCCCCCCCCNC(=O)[C@H](Cc1ccc(O)c([N+](=O)[O-])c1)NC(=O)[C@H](CC1CCCCC1)NC(=O)/C=C/C(=O)O` returned an IC50 in assay [1] of 20 µM. `CCC(C)[C@H](NC(=O)CCCCCCCCCCCNC(=O)[C@@H](NC(=O)[C@@H](N)Cc1ccccc1)C(N)=O)C(=O)N[C@@H](Cc1ccccc1)C(N)=O` (stereo partly drawn): the inhibition in assay [2] worked out at 35%.

In assay [1], `CCC(C)[C@H](NC(=O)CCCCCCCCCCCNC(=O)[C@H](Cc1ccc(O)c([N+](=O)[O-])c1)NC(=O)[C@H](CC1CCCCC1)NC(=O)/C=C/C(=O)O)C(N)=O` (stereo partly drawn) returned an IC50 of 3.7 µM. In assay [1], `CC[C@H](C)[C@H](NC(=O)[C@H](CCC(N)=O)NC(=O)[C@@H]1CCCN1C(=O)CCCCCCCCCCCCCCC(=O)N[C@@H](CO)C(=O)N[C@H](C(=O)N[C@@H](CC(C)C)C(=O)N[C@@H](CC(N)=O)C(=O)N[C@@H](Cc1ccccc1)C(=O)O)[C@@H](C)O)C(=O)N[C@H](C(=O)N[C@@H](CC(C)C)C(=O)N[C@@H](Cc1c[nH]c2ccccc12)C(=O)O)[C@H](C)O` registered an IC50 of 0.35 µM. In addition, in assay [3], the Ki worked out at 0.22 µM. Taken in the same sequence, the figures for `CCC(C)[C@H](NC(=O)CCCCCCCCCCCNC(=O)[C@H](Cc1ccc(O)c([N+](=O)[O-])c1)NC(=O)[C@H](CC1CCCCC1)NC(=O)/C=C/C(=O)O)C(=O)N[C@@H](Cc1ccc(O)c([N+](=O)[O-])c1)C(N)=O` (stereo partly drawn) (Fumaroyl-[Cha][Tyr(3-NO2)][12Ado][Ile(3ξ)][Tyr(3-NO2)]-NH2) were 247 µM and 222 µM.

In the case of `CCC(C)[C@H](NC(=O)CCCCCCCCCCCNC(=O)[C@@H](NC(=O)[C@H](Cc1ccccc1)NC(=O)CCC(=O)O)C(N)=O)C(=O)N[C@@H](Cc1ccccc1)C(N)=O` (stereo partly drawn), the inhibition in assay [2] is less than 50%. In assay [1], `CCC(C)[C@H](NC(=O)CCCCCCCCCCCNC(=O)[C@@H](NC(=O)[C@H](Cc1ccccc1)NC(=O)/C=C/C(=O)O)C(N)=O)C(=O)N[C@@H](Cc1ccccc1)C(N)=O` (stereo partly drawn) displayed an IC50 of 12 µM. This compound came in with a Ki in assay [3] of 4.9 µM. In the case of `NC(=O)[C@H](Cc1ccc(O)c([N+](=O)[O-])c1)NC(=O)[C@H](CC1CCCCC1)NC(=O)/C=C/C(=O)O`, the inhibition in assay [2] is less than 20%. On to `CCC(C)[C@H](NC(=O)CCCCCCCCCCCNC(=O)[C@H](NC(=O)[C@@H](Cc1ccccc1)NC(=O)/C=C/C(=O)O)C(N)=O)C(=O)N[C@@H](Cc1ccccc1)C(N)=O` (stereo partly drawn), for which half-maximal inhibition in assay [1] (IC50) was put at 9.7 µM. Regarding `CCC(C)[C@H](NC(=O)CCCCCCCCCCCNC(=O)[C@@H](NC(=O)[C@H](Cc1ccccc1)NC(C)=O)C(N)=O)C(=O)N[C@@H](Cc1ccccc1)C(N)=O` (stereo partly drawn), the inhibition in assay [2] was 15%. In turn, `CCC(C)[C@H](NC(=O)CCCCCCCCCCCNC(=O)[C@@H](NC(=O)[C@@H](Cc1ccccc1)NC(=O)/C=C/C(=O)O)C(N)=O)C(=O)N[C@@H](Cc1ccccc1)C(N)=O` (stereo partly drawn) yielded an IC50 in assay [1] of 18.8 µM. In other words, the double-digit micromolar range.

With `CCC(C)[C@H](NC(=O)CCCCCCCCCCCNC(=O)[C@H](Cc1ccc(O)c([N+](=O)[O-])c1)NC(=O)[C@H](CC1CCCCC1)NC(=O)/C=C/C(=O)O)C(=O)N[C@@H](Cc1ccccc1)C(N)=O` (stereo partly drawn) (Fumaroyl-[Cha][Tyr(3-NO2)][12Ado][Ile(3ξ)]F-NH2), in assay [1], the IC50 came to 327 µM. Affinity in assay [3] was put at a Ki of 199 µM. In assay [1], `CCC(C)[C@H](NC(=O)CCCCCCCCCCCNC(=O)CNC(=O)[C@@H](CC(N)=O)NC(=O)[C@H](Cc1ccccc1)NC(=O)/C=C/C(=O)O)C(=O)N[C@@H](Cc1ccccc1)C(N)=O` (stereo partly drawn) had an IC50 of 16.8 µM. Regarding `CC(C)C[C@H](NC(=O)[C@@H](NC(=O)CCCCCCCCCCCCCCC(=O)N[C@@H](CC(N)=O)C(=O)N[C@@H](Cc1ccccc1)C(=O)O)[C@H](C)O)C(=O)N[C@@H](Cc1ccccc1)C(N)=O` ({Phe-Asn-C16 diacid}-[aThr]-Leu-Phe-NH2), in assay [1], the 50% inhibitory concentration (IC50) was determined as 5.4 µM. The Ki in assay [3] was found to be 3 µM.

In assay [1], `CCC(C)[C@H](NC(=O)CCCCCCCCCCCNC(=O)[C@H](Cc1ccc(O)c([N+](=O)[O-])c1)NC(=O)[C@H](CC1CCCCC1)NC(=O)/C=C/C(=O)O)C(=O)N[C@@H](Cc1cccc2ccccc12)C(N)=O` (stereo partly drawn) (Fumaroyl-[Cha][Tyr(3-NO2)][12Ado][Ile(3ξ)][1Nal]-NH2) had an IC50 of 361 µM. In assay [3], this compound yielded a Ki of 209 µM. `CC(C)C[C@H](NC(=O)CCCCCCCCCCCCCCC(=O)N[C@@H](CC(N)=O)C(=O)N[C@@H](Cc1ccccc1)C(=O)O)C(=O)N[C@@H](Cc1ccccc1)C(N)=O` (HELM PEPTIDE1{L.F.[am]}|PEPTIDE2{N.F}|CHEM1{[O=C(CCCCCCCCCCCCCCC(=O)[*:2])[*:1]]}$PEPTIDE1,CHEM1,1:R1-1:R1|PEPTIDE2,CHEM1,1:R1-1:R2$$$V2.0): the IC50 in assay [1] is 11 µM.

For the compound `CCC(C)[C@H](NC(=O)CCCCCCCCCCCNC(=O)[C@H](NC(=O)[C@H](Cc1ccccc1)NC(=O)/C=C/C(=O)O)C(N)=O)C(=O)N[C@@H](Cc1ccccc1)C(N)=O` (stereo partly drawn), the midpoint of inhibition in assay [1], the IC50, lay at 14.2 µM.
